Experimental data published in patent US20220281918A1, “PBP BINDING BICYCLIC PEPTIDE LIGANDS” (BicycleTx Limited, priority 2019, published 2022).
Converted amounts (≈) assume the structure as drawn. Numbered stars: 1 amine (or outer) side, 2 acyl side, 3 side chain; on linkers, the order of the positions; unused ones are H or OH. Bridge positions count the residues as written; N and C are the ends. Square brackets hold non-standard residues; d marks the D form. Ends that are not written are not given here. TATA = O=C(CC[*:1])N1CN(C(=O)CC[*:2])CN(C(=O)CC[*:3])C1; fluorescein = label appended via Sar6-Lys linker; Sar = CNCC(=O)O

Legend:
PBP3 of E. coli [1] = biological target: T1, PBP3 of E. coli (Escherichia coli, UniProt P0AD68); assay: Fluorescence polarisation direct binding assay, PBP 3; settings: PBP Tested 3 (E. coli); fluorescent ligand
Protocol: Fluorescence polarisation was carried out using fluorescein-labelled peptides with unmodified PBP protein and measured using a PHERAstar FS by BMG Labtech fitted with a FP 485 520 520 optic module.
Fluorescent peptides at 10 mM in DMSO were diluted to 2.5 nM in binding buffer (10 mM HEPES, pH8, 300 mM NaCl, 2% glycerol). A two-fold dilution series of PBP protein was then prepared across 12 wells in binding buffer, with the highest concentration being 21 μM, and the lowest concentration being 17 nM.
10 μl diluted fluorescent peptide (2.5 nM) was added into 12 wells of a 384-Well NBS™ Low Volume Microplate (Fisher Scientific). 10 μl PBP dilution series was then added to the wells containing the fluorescent peptide, and 5 μl binding buffer was added to bring the total volume to 25 μl and the final concentration of peptide tracer to 1 nM. A control well lacking PBP protein was prepared with a final peptide concentration of 1 nM to a final volume of 25 μl in binding buffer. Fluorescence polarisation was measured every 5 minutes for a period of one hour at room temperature. The gain and focal height were optimised using the control well lacking protein. […]
Data were analysed in GraphPad software to derive values for the dissociation constant. […]
Of note, the direct binding values presented herein utilise a peptide ligand bound to a fluorescence tracer molecule.

E. cloacae (NCTC 13405) = assay: MIC assay (10 μl), E. cloacae; assay type: cell-based; settings: Enterobacter cloacae, NCTC13405
Protocol: (§1) Test compounds were dissolved at high concentration in the required solvent. Where DMSO was used to dissolve test compounds, a DMSO control with equivalent concentrations of DMSO was included for each test organism. For each test organism, a control antibiotic (for which susceptibility of the test organism was known) was tested in parallel. This allowed comparison of results between runs and validated the testing procedure and organism.
(§2) Using aseptic technique, serial 2-fold dilutions (across a 10 point range) of the test compounds were made in 5 μl of cation-adjusted Muller Hinton broth (CA-MHB), on the inverted lid of a 96-well plate. Inoculum for each test organism was made in phosphate-buffered saline (PBS) to match the turbidity of a 0.5 McFarland standard, and then diluted 100-fold. Each well (except negative control well) was inoculated with 5 μl of inoculum. For each test antibiotic, a negative control (no bacteria) was included, consisting of CA-MHB only; along with a positive control (no antibiotic) with CA-MHB and bacteria only. The base of the 96 well plate was used as a lid, and the plate was incubated inside a humidor to reduce evaporation. […] MIC was evaluated based on turbidity, using white light shone through the base of the plate to illuminate droplets.

E. Coli GKCW101 (WT) = assay: MIC assay, E. coli GKCW101; assay type: cell-based; settings: Escherichia coli
Protocol: (§3) Minimum inhibitory concentration (MIC) assays were carried out using E. coli strains from the Zgurskaya lab engineered to harbour an inducible pore to make the outer membrane permeable (Krishnamoorthy et al. (2016) doi: https://doi.org/10.1128/AAC.01882-16). Strains used: GKCW101; GKCW102; GKCW103; and GKCW104.
(§4) Overnight cultures of bacteria were first prepared by transferring a single bacterial colony into 5 mL cation-adjusted Mueller-Hinton broth (CA-MHB) supplemented with kanamycin at 50 μg/mL. The following day, overnight cultures were diluted 1/100 in 25 mL CA-MHB with 50 μg/mL kanamycin and cultured until the optical density reached 0.3 as measured on a spectrometer at 600 nm.
(§5) Filter-sterilised arabinose was then added to a concentration of 0.1% w/v and subsequently cultured until the optical density at 600 nm equalled to 1.
(§6) The cultured medium was then diluted to 1×10^6 CFU mL^−1 in CA-MHB supplemented with 0.1% w/v arabinose and 50 μg/mL kanamycin. […]
(§7) A maximum 8 μl of peptide ligand was then added into the wells of column 1 and diluted two-fold across the plate. […] The optical density at 600 nm was then measured for each of the wells using a PheraStar FSx plate reader. MIC values were determined as the cutoff concentration between visible growth and no growth of the bacteria.

E. coli (ATCC 25922) = assay: MIC assay (10 μl), E. coli ATCC 25922; assay type: cell-based; settings: Escherichia coli, ATCC25922
Protocol: as §1, §2

[2] = test system: S. typhimurium (ATCC 19585); assay: MIC assay (10 μl), S. typhimurium; assay type: cell-based; settings: Salmonella enterica
Protocol: as §1, §2

[3] = test system: E. Coli GKCW102 (WT-pore); assay: MIC assay, E. coli GKCW102; assay type: cell-based; settings: Escherichia coli
Protocol: as §3, §4, §5, §6, §7

PBP3 of E. coli [4] = biological target: T1, PBP3 of E. coli; assay: Fluorescence polarisation competition binding assay Method 1 (BODIPY labelled penicillin tracer); settings: competition with Bocillin (BODIPY-penicillin)
Protocol: Fluorescence polarisation competition was carried out using a BODIPY labelled Penicillin tracer and unlabelled peptides, for competition to an unmodified PBP protein. Polarisation was measured using a PHERAstar FS by BMG Labtech fitted with a FP 485 520 520 optic module.
Fluorescent BODIPY labelled penicillin at 5 mM in DMSO were diluted to 6.25 nM in binding buffer (10 mM HEPES, pH8, 300 mM NaCl, 2% glycerol). Unmodified PBP were diluted to 2 μM in binding buffer. A two-fold dilution series of unmodified peptide was prepared across 12 wells in binding buffer, with the highest final well concentration being 60 μM, and the lowest concentration being 50 nM. 5 μl of the unmodified peptide dilution series or Carbenicillin were added to 12 wells of a 384-Well NBS™ Low Volume Microplate (Fisher Scientific). 10 μl diluted fluorescent BODIPY labelled penicillin (6.25 nM) were then added to the 12 wells containing the unmodified peptide dilutions. […]
Fluorescence polarisation was measured every 5 minutes for a period of one hour at room temperature. […]
Data were analysed in GraphPad software to derive values for the inhibition constant. […]

E. Coli GKCW103 (ΔToIC) = assay: MIC assay, E. coli GKCW103; assay type: cell-based; settings: Escherichia coli
Protocol: as §3, §4, §5, §6, §7

PBP3 of E. coli [5] = biological target: T2, PBP3 of E. coli (E. coli, UniProt P0AD68 57-577, limits assumed); assay: fluorescence polarisation direct binding; fluorescein-labelled peptide, PBP titrated
T2 construct: also called E. coli PBP3; FtsI
T2 sequence (looked up): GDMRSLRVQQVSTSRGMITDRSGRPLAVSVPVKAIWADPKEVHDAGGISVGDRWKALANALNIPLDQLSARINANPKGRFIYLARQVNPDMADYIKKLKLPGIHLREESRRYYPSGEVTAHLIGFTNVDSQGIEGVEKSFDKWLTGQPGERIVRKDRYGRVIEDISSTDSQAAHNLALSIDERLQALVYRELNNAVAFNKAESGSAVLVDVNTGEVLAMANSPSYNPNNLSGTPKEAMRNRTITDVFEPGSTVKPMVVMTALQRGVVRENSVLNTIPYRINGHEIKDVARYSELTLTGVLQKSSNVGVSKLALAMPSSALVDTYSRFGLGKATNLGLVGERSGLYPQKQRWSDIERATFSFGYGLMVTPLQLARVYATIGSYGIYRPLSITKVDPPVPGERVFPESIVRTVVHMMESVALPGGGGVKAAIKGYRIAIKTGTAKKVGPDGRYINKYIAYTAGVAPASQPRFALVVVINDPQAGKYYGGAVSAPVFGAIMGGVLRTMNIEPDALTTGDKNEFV

PBP3 of P. aeruginosa = biological target: T3, PBP3 of P. aeruginosa (P. aeruginosa, UniProt G3XD46 50-579, limits assumed); assay: as above
T3 construct: also called P. aeruginosa PBP3

S. pneumoniae PBP1a = biological target: T4, S. pneumoniae PBP1a (S. pneumoniae, UniProt Q04707 37-719, limits assumed); assay: as above
T4 sequence (looked up): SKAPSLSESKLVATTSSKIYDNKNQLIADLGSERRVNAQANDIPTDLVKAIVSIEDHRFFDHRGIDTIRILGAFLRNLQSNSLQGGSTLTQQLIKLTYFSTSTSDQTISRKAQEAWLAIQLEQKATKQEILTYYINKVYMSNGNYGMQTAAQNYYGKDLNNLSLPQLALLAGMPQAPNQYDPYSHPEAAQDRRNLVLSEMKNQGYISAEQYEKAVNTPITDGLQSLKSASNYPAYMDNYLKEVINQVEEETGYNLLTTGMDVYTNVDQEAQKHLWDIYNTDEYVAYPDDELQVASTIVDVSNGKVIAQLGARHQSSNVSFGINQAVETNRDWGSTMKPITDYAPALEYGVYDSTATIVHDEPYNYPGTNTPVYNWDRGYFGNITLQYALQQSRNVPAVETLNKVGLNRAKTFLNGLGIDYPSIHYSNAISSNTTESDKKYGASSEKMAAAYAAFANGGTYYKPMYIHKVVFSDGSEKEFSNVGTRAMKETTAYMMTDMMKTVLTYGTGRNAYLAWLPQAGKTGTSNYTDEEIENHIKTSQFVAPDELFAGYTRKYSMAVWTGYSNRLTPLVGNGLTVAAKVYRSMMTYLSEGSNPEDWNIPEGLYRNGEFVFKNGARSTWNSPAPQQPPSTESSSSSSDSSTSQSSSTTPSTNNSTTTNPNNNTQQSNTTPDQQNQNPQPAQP

T1 sequence (P0AD68 1-577): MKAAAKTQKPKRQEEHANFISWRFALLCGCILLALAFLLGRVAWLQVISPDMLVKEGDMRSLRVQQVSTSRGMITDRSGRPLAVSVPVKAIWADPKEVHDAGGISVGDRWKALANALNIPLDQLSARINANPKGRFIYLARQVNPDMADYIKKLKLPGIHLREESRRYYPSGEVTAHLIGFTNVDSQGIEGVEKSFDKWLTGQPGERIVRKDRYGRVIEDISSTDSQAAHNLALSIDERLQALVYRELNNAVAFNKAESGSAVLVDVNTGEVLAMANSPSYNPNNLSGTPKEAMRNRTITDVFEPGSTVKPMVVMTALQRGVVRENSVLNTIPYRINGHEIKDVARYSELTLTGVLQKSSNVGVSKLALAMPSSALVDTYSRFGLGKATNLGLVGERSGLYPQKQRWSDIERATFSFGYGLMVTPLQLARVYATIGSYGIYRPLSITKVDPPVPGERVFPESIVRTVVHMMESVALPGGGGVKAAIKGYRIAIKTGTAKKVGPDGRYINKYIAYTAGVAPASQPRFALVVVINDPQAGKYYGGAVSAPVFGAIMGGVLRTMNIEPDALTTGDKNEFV
T3 sequence (G3XD46 50-579 limits assumed): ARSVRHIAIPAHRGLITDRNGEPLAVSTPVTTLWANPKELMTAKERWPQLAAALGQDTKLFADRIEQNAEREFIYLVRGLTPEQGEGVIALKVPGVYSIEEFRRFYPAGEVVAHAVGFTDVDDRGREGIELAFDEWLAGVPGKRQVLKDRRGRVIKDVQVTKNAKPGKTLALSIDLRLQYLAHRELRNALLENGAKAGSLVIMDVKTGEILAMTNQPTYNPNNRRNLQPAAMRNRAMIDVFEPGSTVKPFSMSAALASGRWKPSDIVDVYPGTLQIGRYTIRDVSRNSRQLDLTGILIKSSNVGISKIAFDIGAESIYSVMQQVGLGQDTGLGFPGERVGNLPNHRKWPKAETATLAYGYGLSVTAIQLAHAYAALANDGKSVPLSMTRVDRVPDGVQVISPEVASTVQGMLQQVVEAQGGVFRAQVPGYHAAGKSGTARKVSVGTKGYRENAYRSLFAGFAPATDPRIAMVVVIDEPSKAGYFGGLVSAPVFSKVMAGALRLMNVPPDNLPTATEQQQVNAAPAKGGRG

Cc1cc(C)n2c1C=C1C=CC(CCC(=O)Nc3ccc(OCC(=O)N[C@@H]4C(=O)N5[C@@H]4SC(C)(C)[C@@H]5C(=O)O)cc3)=[N+]1[B-]2(F)F [Bocillin]
Kd (PBP3 of E. coli [1]): 440 nM

CC1(C)S[C@@H]2[C@H](NC(=O)C(C(=O)O)c3ccccc3)C(=O)N2[C@H]1C(=O)O (stereo partly drawn) [Carbenicillin, reference compound]
MIC (E. cloacae (NCTC 13405)): 256 µg/mL (≈ 677 µM)
MIC (E. Coli GKCW101 (WT)): 14 µg/mL (≈ 37 µM)
MIC (E. coli (ATCC 25922)): 16 µg/mL (≈ 42.3 µM)
MIC [2]: 16 µg/mL (≈ 42.3 µM)
MIC [3]: 0.8 µg/mL (≈ 2.11 µM)
Ki (PBP3 of E. coli [4]): 520 nM
MIC (E. Coli GKCW103 (ΔToIC)): 2.3 µg/mL (≈ 6.08 µM)

B1: BCY12130 with fluorescein appended to the C-terminus with a Sar6-Lysine linker (peptide)
peptide: ACSFPKCPWVEGCA
modifications: Ci, Cii and Ciii cyclised with TATA scaffold; fluorescein appended to the C-terminus with a Sar6-Lysine linker
notes: Bicyclic peptide
Kd (PBP3 of E. coli [5]): 2000 nM
binding result (PBP3 of P. aeruginosa): no binding

ACPYTSCPPHTMCA[Sar][Sar][Sar][Sar][Sar][Sar]K-fluorescein (linker 2-7-13 via TATA, Bicyclic peptide) [BCY9378 with fluorescein appended to the C-terminus with a Sar6-Lysine linker]
Kd (S. pneumoniae PBP1a): 80 nM

ACHDWDYRHLCYWRCA[Sar][Sar][Sar][Sar][Sar][Sar]K-fluorescein (linker 2-11-15 via TATA, Bicyclic peptide) [BCY9383 with fluorescein appended to the C-terminus with a Sar6-Lysine linker]
Kd (S. pneumoniae PBP1a): 400 nM
